Assay results published in US20080312263A1, “PHARMACEUTICAL COMPOSITIONS FOR THE PREVENTION AND TREATMENT OF ATHEROSCLEROSIS” (UNIVERSITE RENE DESCARTES-PARIS 5, priority 2004, published 2008).
“Also recorded” adds a separate entry of the source.

Legend:
Watanabe rabbits [1] = experiment: Lipid profile (plasmatic cholesterol, triglycerides, HDL, LDL) in treated Watanabe rabbits; format: in vivo, rabbit
Experimental: 2. […] The cholesterol is assayed according to an enzymatic colorimetric test using a cholesterol-esterase and a cholesterol-oxidase, followed by a reaction with a peroxidase. The latter reacts with hydrogen peroxide and releases a red derivative the stain intensity of which (measured between 550 and 700 nm) is directly proportional to the cholesterol concentration. The triglyceride assay is also based on this principle, using a lipase which releases glycerol, and a peroxidase which reacts with the hydrogen peroxide and forms a red compound. The HDL cholesterol is assayed by an enzymatic calorimetric test in two phases. The first selects the different lipid fractions by means of dextran sulphate. […] The results are expressed in mmol/l. The kits necessary for all these assays are supplied by RANDOX (Montpellier, France).

Watanabe rabbits [2] = experiment: Macroscopic study of the aortas: surface area of the lesions by planimetry; format: in vivo, rabbit
Experimental: After eight weeks, a sampling of serum (about 1 ml) is carried out then the animals are anaesthetized with an injection of heparinized pentobarbital, and finally sacrificed.
On the day of sacrifice, after anaesthesia, in the shortest possible time, the animal is opened along the whole length of the cervico-thoracic region. The aorta is incised as low as possible. Using curved scissors, the aorta is removed from the aortic arch as far as the level of the iliac bifurcation following the vertebral column. The aorta is first cleaned in physiological serum and the fatty tissues are removed from its external tunica. It is fixed for 20 minutes in a 2% paraformaldehyde-2% glutaraldehyde mixture then opened along its length. It is then again immersed in the same fixer for 24 hours, after which the aorta is rinsed in 70% ethanol, then stained with Soudan IV for 15 minutes. It is once again rinsed in 80% ethanol for 20 minutes then under running water for 1 hour (22). […] The images are analyzed by means of planimetry software (Scion Image) which makes it possible to determine the surface of the lesions. Finally the aorta is fixed in the same fixer with a view to microscopic study.

[3] = Monitoring of the animals: weight and food intake; format: in vivo, rabbit; settings: not included in the study
Experimental: Twenty-four Watanabe rabbits (Centre de Production Animale, Olivet, France) which are hyperlipidaemic due to an hereditary LDL-receptor (LDL-R) deficiency, homozygous, and six weeks old, are used. Each animal is placed in an individual cage and receives a food ration of 200 g to 250 g per day.
(§1) The food intake is measured daily and the animals are weighed once a week. Plasma samples are taken every fifteen days from the marginal ear vein. The blood, collected in heparin tubes, is centrifuged (4° C., 2000 g, 15 minutes). Part of the plasma is deproteinized by a solution of sulphosalicylic acid (30%) then divided into aliquot fractions with a view to an assay of the amino acids. The remainder of the plasma is aliquoted into several fractions of about 200 μl, and stored at −80° C.

[4] = rabbit, in vivo
Experimental: Each animal is placed in an individual cage and receives a food ration of 200 g to 250 g per day.
as §1
The plasmatic arginine, ornithine and citrulline concentrations are determined on a JEOL (Tokyo, Japan) amino acid analyzer. The amino acids are separated by cation-exchange chromatography. On leaving the column, they are developed by a ninhydrin stain reaction. The reaction obtained is quantified by photometry at 570 and 440 nm. The results are expressed in μmol/l.

[5] = test system: hypercholesterolemic rabbits; settings: enriched diet over 12 to 16 weeks; cited from earlier work
[6] = test system: New Zealand White rabbits; settings: 2.5 mg/kg/day; cited from earlier work
New Zealand White rabbit = settings: cited from earlier work
Watanabe rabbits [7] = settings: 16 weeks; cited from earlier work

**Q.** For `N=C(N)NCCC[C@H](N)C(=O)O` [arginine, L-Arginine], which “effect on the plasmatic cholesterol” value (Watanabe rabbits [1]; 8 weeks treatment, versus control at T8, FIG. 3) is on record?
**A.** The value was “no effect”.

**Q.** What about the “effect on the lipid profile” value (Watanabe rabbits [1]; arginine diet alone) of the same molecule?
**A.** The value was “no appreciable effect”.

**Q.** What about the “increase in the plasmatic cholesterol concentration” value (Watanabe rabbits [1]; between T0 and T8) of the same molecule?
**A.** Its value is 30%.

**Q.** What about the “plasmatic triglycerides concentration, course” value (Watanabe rabbits [1]; between T0 and T8, FIG. 4) of the same molecule?
**A.** The value was “increases with age; also recorded: increase by more than half”.

**Q.** And the “lesion surface smaller than the control by a factor” value (Watanabe rabbits [2]; T8)?
**A.** The value was 1.3.

**Q.** And the “surface area of the lesions (whole aorta)” value (Watanabe rabbits [2]; T8, versus the control, FIG. 10)?
**A.** The value was “smaller”.

**Q.** And the “surface area of the lesions, distal half of the aorta” value (Watanabe rabbits [2]; T8, FIG. 11)?
**A.** The value was “no effect”.

**Q.** And the “animals died before the end of the protocol” value [3]?
**A.** The value was “two animals”.

**Q.** And the “L-Arginine concentration in general” value [4]?
**A.** Its value is “doubled”.

**Q.** And the “plasmatic arginine concentration, at T4” value [4]?
**A.** The value was “doubled”.

**Q.** What about the “plasmatic arginine concentration, at T8” value [4] of the same molecule?
**A.** The value was “drops”.

**Q.** And the atheromatous plaque area [5]?
**A.** Its atheromatous plaque area is “stabilization”.

**Q.** Which results are given for `CC(C)c1c(C(=O)Nc2ccccc2)c(-c2ccccc2)c(-c2ccc(F)cc2)n1CC[C@@H](O)C[C@@H](O)CC(=O)O` [atorvastatin, Atorvastatin, reference compound]?
**A.** effect on LDL concentration (Watanabe rabbits [1]; FIG. 6, during treatment): induces a reduction; reduction of the LDL fraction (Watanabe rabbits [1]; LDL calculated by Friedewald formula, between T0 and T8): 27.16%; size of the lesions [6]: reduction in the size of the lesions

**Q.** For `CC[C@H](C)C(=O)O[C@H]1C[C@@H](C)C=C2C=C[C@H](C)[C@H](CC[C@@H]3C[C@@H](O)CC(=O)O3)[C@H]21` [lovastatin], which reduction in cholesterol (New Zealand White rabbit; 16 weeks, New Zealand White rabbit) is on record?
**A.** Its reduction in cholesterol is 32%.

**Q.** And the plaque progression (New Zealand White rabbit; New Zealand White rabbits)?
**A.** Its plaque progression is “slowed down the plaque progression”.

**Q.** With `O=C(O)C[C@H](O)C[C@H](O)/C=C/c1c(C2CC2)nc2ccccc2c1-c1ccc(F)cc1` [pitavastatin] as the molecule, how does the “reduction in plasmatic cholesterol” value (Watanabe rabbits [7]) read?
**A.** The value was 28.6%.
